Test results as given in patent US9125388B2, “Biological control” (Isis Innovation Limited, priority 1999, dated 2015).

What was measured:
Assay type in all cases: in vivo, Drosophila melanogaster
[1] = tested on: Recombinant chromosome stocks; assay: Maintenance of stocks on non-antibiotic tetracycline analogues; details: for concentration on which recombinant chromosome stocks can readily be maintained / repressing tTA responsive gene expression: 25° C.
Procedure: Recombinant chromosome stocks can readily be maintained at 25° C. on epioxytetracycline concentrations of 1 μg/ml or anhydrotetracycline concentrations of 0.1 μg/ml, showing that these non-antibiotic tetracycline analogues are effective in repressing tTA responsive gene expression.
(§1) A standard range of additive concentrations were used in the following experiments (0.05-20 μg/ml). […] (=“not done”)

[2] = tested on: Yp3 tTa, tRe Msl-1^Mpu on the 2nd chromosome; assay: Recombinant chromosome experiments: parents raised on supplement, progeny on normal food, adults by sex (25, 18 or 29° C.); details: 25° C.
Procedure: (§2) 40-45 young females and 20-25 young males raised at 25° C. upon food with the indicated tetracycline supplement were allowed to mate, then transferred to normal (tetracycline-free) food after 3-4 days. These flies were transferred to fresh vials of normal food every day for 12 days, then removed on the 13th day. All the vials were incubated at 25° C. while the progeny developed. The numbers of male and female progeny emerging as adults in each vial were recorded.
Since there is no meiotic recombination in Drosophila melanogaster males, any of these recombinant chromosomes could be used in a genetic sexing or insect control program, if required.
as §1
(§3) All the preceding experiments were performed at 25° C., the standard temperature for Drosophila culture. However, the insects in the wild would clearly be exposed to varying temperatures, so we investigated the extent to which the efficiency of the system is affected by temperature. As with the recombinant chromosome experiments, 40-45 young virgin females and 20-25 young males raised at 25° C. upon food with the indicated tetracycline supplement were allowed to mate, then transferred to normal (tetracycline-free) food after 3-4 days. These flies were transferred to fresh vials of normal food every day. The numbers of male and female progeny emerging as adults in each vial were recorded. These experiments were performed at either 18° C. or 29° C.

[3] = tested on: Sxlp^e tTa, tRe Msl-1^Mpu on the X chromosome; assay: as above; details: 25° C.
Procedure: as §2, §1, §3

[4] = tested on: Hsp26 tTa, tRe Msl-1^Mpu on the 2nd chromosome; assay: as above; details: 25° C.
Procedure: as §2, §1, §3

[5] = tested on: Hsp26 tTa, tRe Msl-2^Nopu on the 2nd chromosome; assay: as above; details: 25° C.
Procedure: as §2, §1, §3

[6] = tested on: Yp3 tTa, tRe Msl-2^Nopu on the 2nd chromosome; assay: as above; details: 25° C.
Procedure: as §2, §1, §3

[7] = tested on: Sxl^pe-tTA, tRE-Ras64B^V12 on the third chromosome; assay: as above; details: 25° C.
Procedure: as §2, §1, §3

[8] = tested on: Sxl^pe-tTA, tRE-Msl-2^Nopu on the X chromosome; assay: as above; details: 25° C.
Procedure: as §2, §1, §3

[9] = tested on: Sxl^pe-tTA, tRE-Ras64B^V12 on the X chromosome; assay: as above; details: for Female progeny emerging as adults / Male progeny emerging as adults: 25° C.
Procedure: as §2, §1, §3

[10] = tested on: Sxl^pe-tTA, tRE-Msl-2^Nopu on the third chromosome; assay: as above; details: 25° C.
Procedure: as §2, §1, §3

[11] = tested on: Yp3 tTa, tRe Ras64B^V12 on the 2nd chromosome; assay: Recombinant chromosome experiments / maternal transmission of Tc (Table 1): parents raised on supplement, progeny on normal food, adults by sex; details: 25° C.
Procedure: as §2, §1, §3
We used a strain of Drosophila in which females, but not males, require Tc for viability.
A strain homozygous for second chromosome insertions of both Yp3-tTA and tRe-Ras64B^V12 was tested for the effect of parental dietary Tc. 40-45 young females and 20-25 young males raised at 25° C. upon food with the indicated tetracycline supplement were allowed to mate, then transferred to normal (tetracycline-free) food after 3-4 days. These flies were transferred to fresh vials of normal food every day for 12 days, and then removed on the 13th day. All the vials were incubated at 25° C. while the progeny developed. The total numbers of male and female progeny emerging as adults were recorded.

[12] = parents raised on anhydrotetracycline 0.05 μg/ml
[13] = parents raised on anhydrotetracycline 0.1 μg/ml
[14] = parents raised on anhydrotetracycline 1 μg/ml
[15] = parents raised on anhydrotetracycline 5 μg/ml
[16] = parents raised on anhydrotetracycline 20 μg/ml
[17] = parents raised on epioxytetracycline 1 μg/ml
[18] = parents raised on epioxytetracycline 5 μg/ml
[19] = parents raised on epioxytetracycline 20 μg/ml
[20] = Epioxytetracycline Conc. 1 μg/ml
[21] = Epioxytetracycline Conc. 5 μg/ml
[22] = Epioxytetracycline Conc. 20 μg/ml

Compound: Cc1c2c(c(O)c3c(O)cccc13)C(=O)[C@]1(O)C(=O)C(C(N)=O)=C(O)[C@@H](N(C)C)[C@@H]1C2 [anhydrotetracycline]
- concentration on which recombinant chromosome stocks can readily be maintained [1]: 0.1 µg/mL
- repressing tTA responsive gene expression [1]: effective
- Female progeny emerging as adults [2, 12]: 0
- Male progeny emerging as adults [2, 12]: 1339
- Female progeny emerging as adults [2, 13]: 0
- Male progeny emerging as adults [2, 13]: 1263
- Female progeny emerging as adults [2, 14]: 0
- Male progeny emerging as adults [2, 14]: 1265
- Female progeny emerging as adults [2, 15]: 0
- Male progeny emerging as adults [2, 15]: 1284
- Female progeny emerging as adults [2, 16]: 0
- Male progeny emerging as adults [2, 16]: 1297
- Female progeny emerging as adults [3, 12]: 0
- Male progeny emerging as adults [3, 12]: 1582
- Female progeny emerging as adults [3, 13]: 0
- Male progeny emerging as adults [3, 13]: 1499
- Female progeny emerging as adults [3, 14]: 0
- Male progeny emerging as adults [3, 14]: 1474
- Female progeny emerging as adults [3, 15]: 0
- Male progeny emerging as adults [3, 15]: 1619
- Female progeny emerging as adults [3, 16]: 5
- Male progeny emerging as adults [3, 16]: 1533
- Female progeny emerging as adults [4, 12]: 0
- Male progeny emerging as adults [4, 12]: 1492
- Female progeny emerging as adults [4, 13]: 0
- Male progeny emerging as adults [4, 13]: 1426
- Female progeny emerging as adults [4, 14]: 0
- Male progeny emerging as adults [4, 14]: 1418
- Female progeny emerging as adults [4, 15]: 0
- Male progeny emerging as adults [4, 15]: 1457
- Female progeny emerging as adults [4, 16]: 8
- Male progeny emerging as adults [4, 16]: 1499
- Female progeny emerging as adults [5, 12]: 0
- Male progeny emerging as adults [5, 12]: 707
- Female progeny emerging as adults [5, 13]: 0
- Male progeny emerging as adults [5, 13]: 1457
- Female progeny emerging as adults [5, 14]: 0
- Male progeny emerging as adults [5, 14]: 1437
- Female progeny emerging as adults [5, 15]: 0
- Male progeny emerging as adults [5, 15]: 773
- Female progeny emerging as adults [5, 16]: 5
- Male progeny emerging as adults [5, 16]: 1447
- Female progeny emerging as adults [6, 12]: 0
- Male progeny emerging as adults [6, 12]: 1316
- Female progeny emerging as adults [6, 13]: 0
- Male progeny emerging as adults [6, 13]: 1358
- Female progeny emerging as adults [6, 14]: 0
- Male progeny emerging as adults [6, 14]: 1354
- Female progeny emerging as adults [6, 15]: 0
- Male progeny emerging as adults [6, 15]: 1344
- Female progeny emerging as adults [6, 16]: 1
- Male progeny emerging as adults [6, 16]: 1312
- Female progeny emerging as adults [7, 12]: 0
- Male progeny emerging as adults [7, 12]: 1381
- Female progeny emerging as adults [7, 13]: 0
- Male progeny emerging as adults [7, 13]: 1304
- Female progeny emerging as adults [7, 14]: 0
- Male progeny emerging as adults [7, 14]: 1121
- Female progeny emerging as adults [7, 15]: 0
- Male progeny emerging as adults [7, 15]: 1269
- Female progeny emerging as adults [7, 16]: 1
- Male progeny emerging as adults [7, 16]: 1247
- Female progeny emerging as adults [8, 12]: 0
- Male progeny emerging as adults [8, 12]: 1114
- Female progeny emerging as adults [8, 13]: 0
- Male progeny emerging as adults [8, 13]: 1120
- Female progeny emerging as adults [8, 14]: 0
- Male progeny emerging as adults [8, 14]: 1130
- Female progeny emerging as adults [8, 15]: 0
- Male progeny emerging as adults [8, 15]: 1148
- Female progeny emerging as adults [8, 16]: 0
- Male progeny emerging as adults [8, 16]: 1128
- Female progeny emerging as adults [9, 12]: 0
- Male progeny emerging as adults [9, 12]: 1452
- Female progeny emerging as adults [9, 13]: 0
- Male progeny emerging as adults [9, 13]: 1528
- Female progeny emerging as adults [9, 14]: 0
- Male progeny emerging as adults [9, 14]: 1614
- Female progeny emerging as adults [9, 15]: 0
- Male progeny emerging as adults [9, 15]: 1448
- Female progeny emerging as adults [9, 16]: 5
- Male progeny emerging as adults [9, 16]: 1592
- Female progeny emerging as adults [10, 12]: 0
- Male progeny emerging as adults [10, 12]: 1331
- Female progeny emerging as adults [10, 13]: 0
- Male progeny emerging as adults [10, 13]: 1431
- Female progeny emerging as adults [10, 14]: 0
- Male progeny emerging as adults [10, 14]: 1309
- Female progeny emerging as adults [10, 15]: 0
- Male progeny emerging as adults [10, 15]: 1359
- Female progeny emerging as adults [10, 16]: 1
- Male progeny emerging as adults [10, 16]: 1362
- Female progeny emerging as adults [11, 12]: 0
- Male progeny emerging as adults [11, 12]: 1449
- Female progeny emerging as adults [11, 13]: 0
- Male progeny emerging as adults [11, 13]: 1411
- Female progeny emerging as adults [11, 14]: 0
- Male progeny emerging as adults [11, 14]: 1397
- Female progeny emerging as adults [11, 15]: 0
- Male progeny emerging as adults [11, 15]: 1430
- Female progeny emerging as adults [11, 16]: 2
- Male progeny emerging as adults [11, 16]: 1428

Compound: CN(C)[C@H]1C(O)=C(C(N)=O)C(=O)[C@@]2(O)C(O)=C3C(=O)c4c(O)cccc4[C@@](C)(O)[C@H]3[C@H](O)[C@@H]12 [epioxytetracycline]
- concentration on which recombinant chromosome stocks can readily be maintained [1]: 1 µg/mL
- repressing tTA responsive gene expression [1]: effective
- concentration required to repress gene expression, compared with tetracycline ([1]; in vivo): slightly higher concentrations are required
- stock maintenance at the two lowest concentrations ([1]; standard range of additive concentrations 0.05-20 μg/ml): unable to maintain stock
- Female progeny emerging as adults [2, 17]: 0
- Male progeny emerging as adults [2, 17]: 1350
- Female progeny emerging as adults [2, 18]: 0
- Male progeny emerging as adults [2, 18]: 1308
- Female progeny emerging as adults [2, 19]: 0
- Male progeny emerging as adults [2, 19]: 1343
- Female progeny emerging as adults [3, 17]: 0
- Male progeny emerging as adults [3, 17]: 1483
- Female progeny emerging as adults [3, 18]: 0
- Male progeny emerging as adults [3, 18]: 1585
- Female progeny emerging as adults [3, 19]: 0
- Male progeny emerging as adults [3, 19]: 1565
- Female progeny emerging as adults [4, 17]: 0
- Male progeny emerging as adults [4, 17]: 1243
- Female progeny emerging as adults [4, 18]: 0
- Male progeny emerging as adults [4, 18]: 1409
- Female progeny emerging as adults [4, 19]: 0
- Male progeny emerging as adults [4, 19]: 1373
- Female progeny emerging as adults [5, 17]: 0
- Male progeny emerging as adults [5, 17]: 1362
- Female progeny emerging as adults [5, 18]: 0
- Male progeny emerging as adults [5, 18]: 1181
- Female progeny emerging as adults [5, 19]: 0
- Male progeny emerging as adults [5, 19]: 1403
- Female progeny emerging as adults [7, 17]: 0
- Male progeny emerging as adults [7, 17]: 1165
- Female progeny emerging as adults [7, 18]: 0
- Male progeny emerging as adults [7, 18]: 1279
- Female progeny emerging as adults [7, 19]: 0
- Male progeny emerging as adults [7, 19]: 1257
- Female progeny emerging as adults [8, 17]: 0
- Male progeny emerging as adults [8, 17]: 1076
- Female progeny emerging as adults [8, 18]: 0
- Male progeny emerging as adults [8, 18]: 1119
- Female progeny emerging as adults [8, 19]: 0
- Male progeny emerging as adults [8, 19]: 1159
- Female progeny [9, 20]: 0
- Male progeny [9, 20]: 1306
- Female progeny [9, 21]: 0
- Male progeny [9, 21]: 1581
- Female progeny [9, 22]: 0
- Male progeny [9, 22]: 1495
- Female progeny emerging as adults [10, 17]: 0
- Male progeny emerging as adults [10, 17]: 1250
- Female progeny emerging as adults [10, 18]: 0
- Male progeny emerging as adults [10, 18]: 1300
- Female progeny emerging as adults [10, 19]: 0
- Male progeny emerging as adults [10, 19]: 1364
- Female progeny emerging as adults [11, 17]: 0
- Male progeny emerging as adults [11, 17]: 1431
- Female progeny emerging as adults [11, 18]: 0
- Male progeny emerging as adults [11, 18]: 1424
- Female progeny emerging as adults [11, 19]: 0
- Male progeny emerging as adults [11, 19]: 1387
